Results reported in US9684238B2, “Fluorene-type compound, photopolymerization initiator comprising said fluorene-type compound, and photosensitive composition containing said photopolymerization initiator” (TOKYO OHKA KOGYO CO., LTD., priority 2012, dated 2017).

Key:
[1] = Transmittance of transparent cured film; assay type: physicochemical; conditions: for Average transmittance (700 nm to 400 nm) Transparent cured film / Transmittance (400 nm) Transparent cured film: cured at exposure energy quantity 80 mJ/cm^2; for transparency of photosensitive composition and formed product (in words): photopolymerization initiator containing the compound
Experimental: Transparent cured films were formed by using the photosensitive compositions obtained in Examples 1 to 9, Examples 2-1 to 2-10, and Comparative Examples 1 and 2 in the same manner as in the evaluation 1 except that the exposure energy quantity was set to 80 mJ/cm^2. The transmittance (%) of each of the resultant transparent cured films at 400 nm and the average transmittance (%) thereof in the range of from 400 to 700 nm were measured with a spectrophotometer (manufactured by Hitachi High-Technologies Corporation, trade name: “U-3900H”, quartz cell, optical path length; 1 cm). A higher transmittance at 400 nm means less coloring with a yellow color. In addition, a higher transmittance of a coating film means a higher transmitting property of a pattern to be formed.

[2] = Evaluation 3: 20-μm pattern line width of black photosensitive composition; conditions: black composition (carbon black, cardo resin), initiator 0.4 mmol
Description: The mixture was filtered with a membrane filter having an aperture of 5 μm to provide a photosensitive composition.
Photosensitive compositions were each obtained in the same manner as in Example 10 except that the used fluorene-based compound and its usage were changed as shown in Table 5.
Each of the photosensitive compositions obtained in Examples 10 to 15, Examples 2-11 to 2-20, and Comparative Example 3 was applied onto a glass substrate with a spin coater (manufactured by Kyowariken Co., Ltd., trade name: “K-359SD1”) so that its thickness after drying became 1.0 μm. The glass substrate after the application was dried with a fan dryer at 90° C. for 10 minutes. Thus, a coating film (photosensitive layer) was formed. Next, the film was exposed to light having an exposure energy quantity of 10 mJ/cm^2, 20 mJ/cm^2, 40 mJ/cm^2, 60 mJ/cm^2, or 80 mJ/cm^2 by using a high-pressure mercury lamp (manufactured by Karl Suss, trade name: “MASK ALIGNER”) through a negative mask (mask width: 20 μm). Next, the resultant was immersed in a 0.1 wt % aqueous solution of tetra methyl ammonium hydroxide (TMAH) and then rinsed with pure water. The remaining cured film was subjected to the following evaluation. In addition, FIGS. 2, 3, and 6 show microscope photographs of black cured films obtained by using the photosensitive compositions of Examples 10 and 11, and Comparative Example 3, and FIGS. 7 to 11 show microscope photographs of black cured films obtained by using the photosensitive compositions of Examples 2-11, 2-13, 2-14, 2-17, and 2-18.
(§1) A larger value for the line width means higher sensitivity.

[3] = Average transmittance of composition; assay type: physicochemical; conditions: photosensitive composition, quartz cell, optical path length 1 cm
Experimental: The average transmittance (%) of each of the photosensitive resin compositions obtained in Examples 1 to 9, Examples 2-1 to 2-10, and Comparative Examples 1 and 2 in the range of from 400 nm to 700 nm was measured with a spectrophotometer (manufactured by Hitachi High-Technologies Corporation, trade name: “U-3900H”, quartz cell, optical path length; 1 cm).

[4] = Evaluation 1: 20-μm pattern line width of transparent photosensitive composition; conditions: for 20-μm pattern line width: transparent composition, initiator 0.4 mmol; for sensitivity to the active energy ray (in words): photopolymerization initiator containing the compound
Experimental: After that, the mixture was filtered with a membrane filter having an aperture of 5 μm to provide a photosensitive composition.
It should be noted that the fluorene-based compound as a photopolymerization initiator was used in such an amount that its molar quantity was kept constant in the respective examples and comparative examples.
The glass substrate after the application was dried with a fan dryer at 90° C. for 10 minutes. Thus, a coating film (photosensitive layer) was formed. Next, the film was exposed to light having an exposure energy quantity of 5 mJ/cm^2, 10 mJ/cm^2, 20 mJ/cm^2, 40 mJ/cm^2, 60 mJ/cm^2, or 80 mJ/cm^2 by using a high-pressure mercury lamp (manufactured by Karl Suss, trade name: “MASK ALIGNER”) through a negative mask (mask width: 20 μm). Next, the resultant was immersed in a 0.1 wt % aqueous solution of tetramethylammonium hydroxide (TMAH) and then rinsed with pure water. The remaining cured film was subjected to the following evaluation.
as §1

[5] = Solubility in PGME, PGMEA and ethyl lactate; assay type: physicochemical; conditions: for solubility (in words): photopolymerization initiator containing the compound; for Solubility Ethyl lactate: in 100 parts by weight of ethyl lactate; for Solubility Ethyl lactate / Solubility PGMEA / Solubility PGME: room temperature; for Solubility PGMEA: in 100 parts by weight of propylene glycol monomethyl ether acetate; for Solubility PGME: in 100 parts by weight of propylene glycol monomethyl ether
Experimental: An evaluation for solubility was performed in accordance with the following evaluation criteria based on the dissolution amount.
A: 10 Parts by weight or more of the photopolymerization initiator is dissolved.
B: An amount in the range of from 5 parts by weight or more to less than 10 parts by weight of the photopolymerization initiator is dissolved.
C: An amount in the range of from 2 parts by weight or more to less than 5 parts by weight of the photopolymerization initiator is dissolved.
D: Less than 2 parts by weight of the photopolymerization initiator is dissolved.

[6] = Absorption coefficient (absorbance of 0.001% solution in tetrahydrofuran); assay type: physicochemical; conditions: for Λ max (absorption maximum wavelength): 0.001% (wt/vol) in tetrahydrofuran, from 280 nm to 400 nm; for Absorption coefficient at 365 nm / Absorption coefficient at Λ max: 0.001% (wt/vol) solution in tetrahydrofuran
Experimental: A 0.001% (wt/vol) solution of each of the compounds 1, 2, 4, 6, 8, 9, 11, 12, 13, 15, 16, D-1, D-3, D-4, D-7, D-8, D-9, D-12, D-14, D-15, D-20, C-1, and C-2 in tetrahydrofuran was prepared, and its absorbance was measured with a spectrophotometer (manufactured by Hitachi High-Technologies Corporation, trade name: “U-3900H”). An absorption maximum wavelength (Amax) at a wavelength of from 280 nm to 400 nm was read from an absorption spectrum obtained with the spectrophotometer.

[7] = Decomposition point by thermal analysis (TG-DTA); assay type: physicochemical; conditions: 5.0 mg
Experimental: The compounds 1, 2, 4, 6, 8, 9, 11, 12, 13, 15, 16, D-1, D-3, D-4, D-7, D-8, D-9, D-12, D-14, D-15, D-20, C-1, and C-2 were each subjected to measurement with a thermal analysis apparatus (TG-DTA) (manufactured by Rigaku Corporation, trade name: “Thermo Plus EVO TG 8120”) by using 5.0 mg thereof.

[8] = exposure energy quantity 10 mJ/cm^2
[9] = exposure energy quantity 20 mJ/cm^2
[10] = exposure energy quantity 40 mJ/cm^2
[11] = exposure energy quantity 60 mJ/cm^2
[12] = exposure energy quantity 80 mJ/cm^2

Structure (SMILES)	Average transmittance (700 nm to 400 nm) Transparent cured film [1] [%]	Transmittance (400 nm) Transparent cured film [1] [%]	Average transmittance (700 nm to 400 nm) Solution [3] [%]	Λ max (absorption maximum wavelength) [6] [nm]	Absorption coefficient at 365 nm [6] [mL/mg/cm]	Absorption coefficient at Λ max [6] [mL/mg/cm]	Decomposition point [7] [°C]	20-μm pattern line width ([2]; 10 mJ/cm^2)	20-μm pattern line width ([2]; 20 mJ/cm^2)	20-μm pattern line width ([2]; 40 mJ/cm^2)	20-μm pattern line width ([2]; 60 mJ/cm^2)	20-μm pattern line width ([2]; 80 mJ/cm^2)	20-μm pattern line width [4, 8]	20-μm pattern line width [4, 9]	20-μm pattern line width [4, 10]	20-μm pattern line width [4, 11]	20-μm pattern line width [4, 12]	sensitivity to the active energy ray (in words) [4]	further results
CCCCCCC1(CCCCCC)c2cc(C(=O)c3ccccc3C)ccc2-c2ccc(C(C)=NOC(C)=O)cc21 [Compound 6]	97.3	99.6	95.4	–	–	–	–	19.7	20.2	21.1	21.7	22.7	19.7	20.2	21.1	21.7	22.7	–	transparency of photosensitive composition and formed product (in words) [1]: additionally excellent transparency
CCCC1(CCC)c2cc(C(=NOC(C)=O)c3ccccc3C)ccc2-c2ccc([N+](=O)[O-])cc21 [Compound 1]	99.3	92.0	88.7	–	–	–	–	20.2	21.2	22.1	23.2	23.3	20.7	21.6	22.6	23.3	23.8	additionally high sensitivity to the active energy ray	solubility (in words) [5]: additionally excellent solubility
CCCC1(CCC)c2cc(C(=NOC(C)=O)c3ccc(C(C)(C)C)cc3)ccc2-c2ccc([N+](=O)[O-])cc21 [Compound D-2]	–	–	–	–	–	–	–	19.4	20.4	21.6	22.1	23.0	–	–	–	–	–	additionally high sensitivity to the active energy ray	–
CCCCCCC1(CCCCCC)c2cc(C(=O)c3ccc([N+](=O)[O-])cc3)ccc2-c2ccc(C(CC(C)N(OC(C)=O)C(C)=O)=NOC(C)=O)cc21 (racemic) [Compound 12]	99.8	99.7	77.8	335.5	11.8	43.0	195.2	–	–	–	–	–	19.8	20.0	21.0	21.2	21.5	–	–
CCCCCCC1(CCCCCC)c2cc(C(=NOC(C)=O)c3ccccc3C)ccc2-c2ccc([N+](=O)[O-])cc21 [Compound 2]	99.3	92.8	87.5	–	–	–	–	–	20.9	22.1	22.8	23.3	21.4	22.3	22.9	23.9	24.4	additionally high sensitivity to the active energy ray	–

The next lines start with results.

Average transmittance (700 nm to 400 nm) Transparent cured film [1] [%]	Transmittance (400 nm) Transparent cured film [1] [%]	Average transmittance (700 nm to 400 nm) Solution [3] [%]	Λ max (absorption maximum wavelength) [6] [nm]	Absorption coefficient at 365 nm [6] [mL/mg/cm]	Absorption coefficient at Λ max [6] [mL/mg/cm]	Decomposition point [7] [°C]	Structure (SMILES)	20-μm pattern line width ([2]; 10 mJ/cm^2)	20-μm pattern line width ([2]; 20 mJ/cm^2)	20-μm pattern line width ([2]; 40 mJ/cm^2)	20-μm pattern line width ([2]; 60 mJ/cm^2)	20-μm pattern line width ([2]; 80 mJ/cm^2)	20-μm pattern line width [4, 8]	20-μm pattern line width [4, 9]	20-μm pattern line width [4, 10]	20-μm pattern line width [4, 11]	20-μm pattern line width [4, 12]	sensitivity to the active energy ray (in words) [4]	further results
–	–	–	296.5	0.1	97.7	240.9	CC(=O)ON=C(C)c1ccc2c(c1)Cc1ccccc1-2 [Compound 16]	–	–	–	–	–	–	–	–	–	–	–	Solubility Ethyl lactate [5]: C (An amount in the range of from 2 parts by weight or more to less than 5 parts by weight of the photopolymerization initiator is dissolved.); Solubility PGMEA [5]: B (An amount in the range of from 5 parts by weight or more to less than 10 parts by weight of the photopolymerization initiator is dissolved.); Solubility PGME [5]: B (An amount in the range of from 5 parts by weight or more to less than 10 parts by weight of the photopolymerization initiator is dissolved.)
100.0	100.0	95.4	–	–	–	–	CCCCCCC1(CCCCCC)c2cc(C(=O)c3ccccc3)ccc2-c2ccc(C(C)=NOC(C)=O)cc21 [Compound 8]	19.6	20.1	21.7	22.7	23.0	19.6	20.1	21.7	22.7	23.0	additionally high sensitivity to the active energy ray	transparency of photosensitive composition and formed product (in words) [1]: additionally excellent transparency; solubility (in words) [5]: additionally excellent solubility
–	–	–	315.0	0.0	70.0	280.0	CCCC1(CCC)c2ccccc2-c2ccc(/C(C)=N/OC(C)=O)cc21 [Compound 15]	–	–	–	–	–	–	–	–	–	–	–	Solubility Ethyl lactate [5]: D (Less than 2 parts by weight of the photopolymerization initiator is dissolved.); Solubility PGMEA [5]: C (An amount in the range of from 2 parts by weight or more to less than 5 parts by weight of the photopolymerization initiator is dissolved.); Solubility PGME [5]: D (Less than 2 parts by weight of the photopolymerization initiator is dissolved.)
